# Earlier results, collected in US20230354819A1 (priority 2020, published 2023).
# Bridge positions count the residues as written; N and C are the ends. Square brackets hold non-standard residues; d marks the D form. Peptide text beside a SMILES is read from it. * marks the point of attachment. ξ: configuration not given here. Pentadecanoyl(3ξ-OH,15-Gua) = N=C(N)NCCCCCCCCCCCCC(O)CC(=O)*; d(aThr) = C[C@@H](O)[C@@H](N)C(=O)O
# System: cultured parsley cells
# Settings: WO 2006/016558
row,Structure (SMILES),induction of resistance reactions
1,CC(C)[C@@H]1NC(=O)[C@@H](C(C)C)NC(=O)[C@@H](NC(=O)CC(O)CCCCCCCCCCCCN=C(N)N)C(C)OC(=O)[C@@H](C)NC(=O)[C@@H](CCC(N)=O)NC(=O)[C@@H]([C@H](C)O)NC1=O (stereo in doubt) [fusaricidin B],induce resistance reactions
2,"CC(C)[C@@H]1NC(=O)[C@@H](C(C)C)NC(=O)[C@@H](NC(=O)CC(O)CCCCCCCCCCCCN=C(N)N)[C@@H](C)OC(=O)[C@@H](C)NC(=O)[C@@H](CC(N)=O)NC(=O)[C@@H]([C@@H](C)O)NC1=O (some centres unmarked) [fusaricidin A] ({Pentadecanoyl(3ξ-OH,15-Gua)}-T[dV]V[d(aThr)][dN][dA]; ester 1-C)",induce resistance reactions
